Test results from PubChem BioAssay (NCI).
Where “and” joins values, the source holds several entries; their conditions need not be identical. Identical values can stand only once.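 Test compounds were applied to cells in 96-well plates for 48 hours at 5 doses. Here, GI50 denotes the concentration required for 50% inhibition of growth. TGI: concentration producing complete growth inhibition.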

Tests used:
Test in all cases: growth of human tumour cells (NCI), 48 h
[1] = system: KM12 colon
[2] = system: NCI-H460 lung
[3] = system: UO-31 renal
[4] = system: SK-OV-3 ovarian
[5] = system: 786-0 renal
[6] = system: SF-295 CNS
[7] = system: UACC-257 melanoma
[8] = system: SK-MEL-2 melanoma
[9] = system: MALME-3M melanoma
[10] = system: A549 NSCLC
[11] = system: RXF 393 renal
[12] = system: SNB-19 CNS

For `CCCC(=O)O[C@H]1C=C2C[C@@]34SS[C@]5(CC6=C[C@H](OC(C)=O)[C@@H]7O[C@@H]7[C@H]6N5C3=O)C(=O)N4[C@@H]2[C@H]2O[C@H]21`, the TGI [1] was 2.29 µM, the TGI [2] was 0.379 µM and the TGI [3] was 0.173 µM. The TGI [4] was 3.21 µM, the TGI [5] was 0.00841 µM and the TGI [6] was 1.35 µM. It also gave a TGI [7] of 0.0746 µM, a TGI [8] of 0.296 µM and a TGI [9] of 0.0239 µM. It also gave a TGI [10] of 1.68 µM, a TGI [11] of 0.0713 µM and a TGI [12] of 1.43 µM.
Molecule `Cc1cc(N=Nc2c(O)ccc3ccccc23)ccc1N=Nc1cccc([N+](C)(C)C)c1` has a TGI [1] of 17.3 µM, a TGI [2] of 30.9 µM and a TGI [3] of 29.7 µM. The TGI [4] was > 75.3 µM, the TGI [5] was > 92 µM and the TGI [6] was 51.9 µM. The TGI [7] was > 63.5 µM, the TGI [8] was 47.3 µM and the TGI [9] was 35.2 µM. The TGI [10] was > 52.2 µM, the TGI [11] was 48.7 µM and the TGI [12] was 26 µM.
In the case of `CC(=O)NNc1nc(C)c(C(/C=C/c2ccc([N+](=O)[O-])cc2)=N/NC(N)=S)s1`, the TGI [1] is reported as > 100 µM, the TGI [2] is reported as > 100 µM and the TGI [3] is reported as > 100 µM. For the same molecule, the TGI [4] was > 100 µM, the TGI [5] was > 100 µM and the TGI [6] was > 100 µM. The TGI [7] was > 100 µM, the TGI [8] was > 100 µM and the TGI [9] was > 100 µM. The TGI [10] was > 100 µM, the TGI [11] was > 100 µM and the TGI [12] was > 100 µM.
`COc1cc(C2SC(N)=Nc3c2c(C)nn3C(=O)c2ccccc2O)ccc1O` (configuration not stated) was tested, and the TGI [1] was > 10 µM, the TGI [2] was > 10 µM and the TGI [3] was > 10 µM. For the same molecule, the TGI [4] was > 10 µM, the TGI [5] was > 10 µM and the TGI [6] was > 10 µM. For the same molecule, the TGI [7] was > 10 µM, the TGI [8] was > 10 µM and the TGI [9] was > 10 µM. The TGI [10] was > 10 µM, the TGI [11] was > 10 µM and the TGI [12] was > 10 µM.
For `O=C1O[C@H]2[C@H](O)[C@@H](OC(=O)c3cc(O)c(O)c4c3[C@@H]3C1=CC(=O)C(O)(O)C3(O)O4)[C@H](OC(=O)c1cc(O)c(O)c(O)c1)O[C@@H]2CO` (some centres not stated), the TGI [1] was > 100 µM, the TGI [2] was > 100 µM and the TGI [3] was > 100 µM. For the same molecule, the TGI [4] was > 100 µM, the TGI [5] was > 100 µM and the TGI [6] was > 100 µM. For the same molecule, the TGI [7] was > 100 µM, the TGI [8] was > 100 µM and the TGI [9] was > 100 µM. The TGI [10] was > 100 µM, the TGI [11] was > 100 µM and the TGI [12] was > 100 µM.
`c1ccc(C2=NOC3(c4ccccc4)SC4CCCCC4CN23)cc1` (configuration not stated) was tested, and the TGI [1] was 88.9 µM, the TGI [2] was > 100 µM and the TGI [3] was > 100 µM. For the same molecule, the TGI [4] was > 100 µM, the TGI [5] was > 100 µM and the TGI [6] was > 100 µM. For the same molecule, the TGI [7] was > 100 µM, the TGI [8] was > 100 µM and the TGI [9] was > 100 µM. For the same molecule, the TGI [10] was 58.5 µM, the TGI [11] was 71.2 µM and the TGI [12] was > 100 µM.
`COc1ccc(C2Oc3cc(OC)c(O)c(C)c3[C@H]2C)cc1` (some centres not stated) was tested, and the TGI [1] was > 100 µM, the TGI [2] was > 100 µM and the TGI [3] was 78 µM. The TGI [4] was > 100 µM, the TGI [5] was > 100 µM and the TGI [6] was > 100 µM. For the same molecule, the TGI [7] was > 100 µM, the TGI [8] was > 100 µM and the TGI [9] was > 100 µM. For the same molecule, the TGI [10] was > 100 µM, the TGI [11] was > 100 µM and the TGI [12] was > 100 µM.
With `Cc1ccc2c(c1)C(=O)N1CCC[C@H]1C=N2` the TGI [1] was 39.7 µM, the TGI [2] was > 71.6 µM and the TGI [3] was > 67 µM. The TGI [4] was > 100 µM, the TGI [5] was > 100 µM and the TGI [6] was > 100 µM. For the same molecule, the TGI [7] was > 74.3 µM, the TGI [8] was 34.9 µM and the TGI [9] was 35.2 µM. For the same molecule, the TGI [10] was > 100 µM, the TGI [11] was 16.1 µM and the TGI [12] was > 100 µM.
For `c1ccc(P(CCP(c2ccccn2)c2ccccn2)c2ccccc2)cc1`, the TGI [1] was > 100 µM, the TGI [2] was > 84.9 µM and the TGI [3] was > 100 µM. The TGI [4] was > 100 µM, the TGI [5] was > 100 µM and the TGI [6] was > 56.6 µM. For the same molecule, the TGI [7] was > 100 µM, the TGI [8] was 66.3 µM and the TGI [9] was > 100 µM. For the same molecule, the TGI [10] was > 100 µM, the TGI [11] was 98 µM and the TGI [12] was > 100 µM.
With `COc1cc(/C=C2/SC(c3ccccc3)N(c3ccccc3)C2=O)cc(OC)c1OC` (configuration not stated) the TGI [1] was > 100 µM, the TGI [2] was > 100 µM and the TGI [3] was > 100 µM. For the same molecule, the TGI [4] was > 100 µM, the TGI [5] was > 100 µM and the TGI [6] was > 100 µM. The TGI [7] was > 100 µM, the TGI [8] was > 100 µM and the TGI [9] was > 100 µM. For the same molecule, the TGI [10] was > 100 µM, the TGI [11] was > 100 µM and the TGI [12] was > 100 µM.
For `CCN(CC)CCNC(=O)c1ccc(I)cc1`, the TGI [1] was > 100 µM, the TGI [2] was > 100 µM and the TGI [3] was > 100 µM. For the same molecule, the TGI [4] was > 100 µM, the TGI [5] was > 100 µM and the TGI [6] was > 100 µM. For the same molecule, the TGI [7] was > 100 µM, the TGI [8] was > 100 µM and the TGI [9] was > 100 µM. The TGI [10] was > 100 µM, the TGI [11] was > 100 µM and the TGI [12] was > 100 µM.
For `COC1C(O)C(C)OC(OC2C(Oc3cccc4c(O)c5c(=O)oc6ccc(C)c7c(=O)oc(c34)c5c67)OC(C)C(O)C2O)C1O` (configuration not stated), the GI50 [1] was 2.17 µM, the TGI [1] was 16.6 µM and 8.05 µM and the TGI [2] was 9.07 µM and 13.1 µM. The TGI [3] was 36.5 µM and 18.9 µM, the GI50 [4] was 3.66 µM and the TGI [4] was 17.2 µM and 23.3 µM. The TGI [5] was 4.57 µM, the GI50 [6] was 1.12 µM and the TGI [6] was 11.9 µM and 4.21 µM. The TGI [7] was 5.85 µM and 5.46 µM, the GI50 [8] was 0.695 µM and the TGI [8] was 1.93 µM and 2.56 µM. The GI50 [9] was 1.83 µM, the TGI [9] was 5.22 µM and 5.75 µM and the GI50 [10] was 5.48 µM. For the same molecule, the TGI [10] was 53 µM and 40.4 µM, the GI50 [11] was 0.536 µM and the TGI [11] was 2.6 µM and 3.37 µM. The GI50 [12] was 0.632 µM and 1.21 µM and the TGI [12] was 26.6 µM and 14.4 µM.
`CN(C)Cc1cc(C(C)(C)C)ccc1-c1ccc(C(C)(C)C)cc1CN(C)C` was tested, and the TGI [1] was > 100 µM, the TGI [2] was > 100 µM and the TGI [3] was > 100 µM. The TGI [4] was > 100 µM, the TGI [5] was > 100 µM and the TGI [6] was > 100 µM. The TGI [7] was > 100 µM, the TGI [8] was > 100 µM and the TGI [9] was > 100 µM. For the same molecule, the TGI [10] was > 100 µM, the TGI [11] was > 100 µM and the TGI [12] was > 100 µM.
`O=C(C[n+]1ccccc1)N/N=C(\Cc1nc2ccc([N+](=O)[O-])cc2[nH]c1=O)C(=O)Nc1cc(Cl)c(Cl)cc1Cl` was tested, and the TGI [1] was > 100 µM, the TGI [2] was > 100 µM and the TGI [3] was > 100 µM. The TGI [4] was > 100 µM, the TGI [5] was > 100 µM and the TGI [6] was > 100 µM. The TGI [7] was > 100 µM, the TGI [8] was > 100 µM and the TGI [9] was > 100 µM. The TGI [10] was > 100 µM, the TGI [11] was > 100 µM and the TGI [12] was > 100 µM.
Work on `CC=CCOc1cc(NC(=S)OC(C)C)ccc1Cl` (mixture of isomers) yielded a TGI [1] of 33.4 µM, a TGI [2] of 31.8 µM and a TGI [3] of 24.7 µM. The TGI [4] was 45.8 µM, the TGI [5] was 31.6 µM and the TGI [6] was 35.5 µM. The TGI [7] was 46.5 µM, the TGI [8] was 28.6 µM and the TGI [9] was 29.6 µM. It also gave a TGI [10] of 33.1 µM, a TGI [11] of 30.8 µM and a TGI [12] of 56.6 µM.
Molecule `Cc1nc2c(nc1C)-c1c(c3c(n1C)C(=O)CCC3)C(=O)C2=O` has a TGI [1] of 5.81 µM, a TGI [2] of 2.7 µM and a TGI [3] of 1.29 µM. It also gave a TGI [4] of 2.61 µM, a TGI [5] of 3.23 µM and a TGI [6] of 3.71 µM. It also gave a TGI [7] of 2.76 µM, a TGI [8] of 1.29 µM and a TGI [9] of 0.669 µM. The TGI [10] was 4.56 µM, the TGI [11] was 0.474 µM and the TGI [12] was 2.82 µM.
In the case of `Nc1ncc(Cl)c(NCC2(CO)CC(CCc3ccccc3)C2)n1` (configuration not stated), the TGI [1] is reported as > 100 µM, the TGI [2] is reported as > 100 µM and the TGI [3] is reported as > 100 µM. The TGI [4] was > 100 µM, the TGI [5] was > 100 µM and the TGI [6] was > 100 µM. The TGI [7] was > 100 µM, the TGI [8] was > 100 µM and the TGI [9] was > 100 µM. The TGI [10] was > 100 µM, the TGI [11] was > 100 µM and the TGI [12] was > 100 µM.
